From ChEMBL document CHEMBL1201862, “PubChem BioAssay data set” (2004)
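1) Cells in 96-well plates. 2) Compound, 48 h, 5 concentrations. 3) Linear interpolation between surrounding doses. 4) Unreached endpoint = highest concentration. At the GI50, growth is halved.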 Active and inactive are the calls of the source. Rule as the data show it: active = GI50 up to about 1.1 µM and inactive = higher.

Key:
Experiment in all cases: NCI anticancer screen, dose series, 48 h
COLO 205 = system: COLO 205
SF-268 = system: SF-268
CCRF-CEM = system: CCRF-CEM
IGROV-1 = system: IGROV-1
NCI-H23 = system: NCI-H23
DMS-114 = system: DMS-114
EKVX = system: EKVX
OVCAR-4 = system: OVCAR-4
SNB-75 = system: SNB-75
HOP-62 = system: HOP-62
SK-MEL-28 = system: SK-MEL-28
SW-620 = system: SW-620
M14 = system: M14
OVCAR-5 = system: OVCAR-5
MDA-MB-435 = system: MDA-MB-435
HOP-92 = system: HOP-92
T47D = system: T47D
Hs-578T = system: Hs-578T
HT-29 = system: HT-29
PC-3 = system: PC-3

Measured: GI50

Cc1cc(C)nc(NS(=O)(=O)c2ccc(NC(=O)c3cccc4c(N)c5ccccc5nc34)cc2)n1
inactive: COLO 205 > 100 µM | SF-268 > 100 µM | CCRF-CEM 26.2 µM | IGROV-1 > 100 µM | NCI-H23 > 100 µM | DMS-114 > 100 µM | EKVX > 100 µM | OVCAR-4 > 100 µM | SNB-75 > 100 µM | HOP-62 > 100 µM | SK-MEL-28 > 100 µM | SW-620 > 100 µM | M14 > 100 µM | OVCAR-5 > 100 µM

CCc1ccc(CCC(=O)O)nc1
inactive: MDA-MB-435 > 100 µM | HOP-92 > 100 µM | T47D > 100 µM | COLO 205 > 100 µM | SF-268 > 100 µM | Hs-578T > 100 µM | HT-29 > 100 µM | CCRF-CEM > 100 µM | IGROV-1 > 100 µM | NCI-H23 > 100 µM | EKVX > 100 µM | OVCAR-4 > 100 µM | SNB-75 > 100 µM | HOP-62 > 100 µM | SK-MEL-28 > 100 µM | SW-620 > 100 µM | M14 > 100 µM | OVCAR-5 > 100 µM | PC-3 > 100 µM

C=C(C)C1=CCC[C@]2(C1)N=C(OC)[C@@H](C(C)C)N=C2OC
inactive: MDA-MB-435 40.1 µM | HOP-92 56 µM | T47D > 100 µM | COLO 205 > 100 µM | SF-268 > 100 µM | Hs-578T > 100 µM | HT-29 > 100 µM | CCRF-CEM 34.3 µM | IGROV-1 47.1 µM | NCI-H23 > 100 µM | EKVX > 100 µM | OVCAR-4 > 100 µM | SNB-75 51.2 µM | HOP-62 > 100 µM | SK-MEL-28 > 100 µM | SW-620 > 100 µM | M14 > 100 µM | OVCAR-5 > 100 µM | PC-3 > 100 µM

CC(=O)O[C@H]1C#C/C=C\C#CC[C@@H]2C(=O)N[C@@H]12
inactive: MDA-MB-435 > 100 µM | HOP-92 46.2 µM | T47D 52.7 µM | COLO 205 50.4 µM | SF-268 18.6 µM | Hs-578T 47.3 µM | HT-29 > 49.8 µM | CCRF-CEM 4.13 µM | IGROV-1 22.8 µM | NCI-H23 11.2 µM | EKVX > 100 µM | OVCAR-4 > 100 µM | SNB-75 28.1 µM | HOP-62 7.94 µM | SK-MEL-28 93.3 µM | SW-620 > 51.3 µM | M14 43.8 µM | OVCAR-5 > 100 µM | PC-3 > 100 µM

OCC1C(O)C(O)[C@@H]2SCCN12 (stereo partly drawn)
inactive: MDA-MB-435 > 100 µM | HOP-92 > 100 µM | T47D > 100 µM | COLO 205 > 100 µM | SF-268 > 100 µM | Hs-578T > 100 µM | HT-29 > 100 µM | CCRF-CEM > 100 µM | IGROV-1 > 100 µM | NCI-H23 > 100 µM | EKVX > 100 µM | OVCAR-4 > 100 µM | SNB-75 > 100 µM | HOP-62 > 100 µM | SK-MEL-28 > 100 µM | SW-620 > 100 µM | M14 > 100 µM | OVCAR-5 > 100 µM | PC-3 > 100 µM

CCOC(=O)N1N=C(/C(C)=N/OC)C(C)[S+]1[O-] (stereo not drawn)
inactive: MDA-MB-435 > 100 µM | HOP-92 > 100 µM | T47D > 100 µM | COLO 205 > 100 µM | SF-268 > 100 µM | Hs-578T > 100 µM | HT-29 > 100 µM | CCRF-CEM > 100 µM | IGROV-1 > 100 µM | NCI-H23 > 100 µM | EKVX > 100 µM | OVCAR-4 > 100 µM | SNB-75 85.3 µM | HOP-62 > 100 µM | SK-MEL-28 > 100 µM | SW-620 > 100 µM | M14 > 100 µM | OVCAR-5 > 100 µM | PC-3 > 100 µM

CC(=O)Nc1ccc(NC(=O)c2c(Cl)c(Cl)c(Cl)c(Cl)c2-c2nc3ccccc3[nH]2)cc1
inactive: MDA-MB-435 35.1 µM | HOP-92 15.7 µM | T47D 25.7 µM | COLO 205 17.6 µM | SF-268 53.5 µM | Hs-578T 77.4 µM | HT-29 35.7 µM | CCRF-CEM 32.7 µM | IGROV-1 20.5 µM | NCI-H23 32.5 µM | EKVX 33.3 µM | OVCAR-4 45.2 µM | SNB-75 73.3 µM | HOP-62 53.3 µM | SK-MEL-28 40.2 µM | SW-620 48.5 µM | M14 35.7 µM | OVCAR-5 67.1 µM | PC-3 44.7 µM

CC(=O)Nc1ccc2c(c1)C(=O)c1cccc(F)c1-2
inactive: MDA-MB-435 > 100 µM | HOP-92 65.5 µM | T47D 24.9 µM | COLO 205 53 µM | SF-268 48.1 µM | Hs-578T 37.2 µM | HT-29 35.2 µM | CCRF-CEM 38.6 µM | IGROV-1 20.1 µM | NCI-H23 43.9 µM | EKVX > 100 µM | OVCAR-4 50.4 µM | SNB-75 56.2 µM | HOP-62 51.3 µM | SK-MEL-28 > 100 µM | SW-620 57.3 µM | M14 50.9 µM | OVCAR-5 80.9 µM | PC-3 45.7 µM

CC(=O)O[C@]1(C)OC(=O)[C@@H](C)N1[N+](=O)[O-]
inactive: COLO 205 > 100 µM | HT-29 > 100 µM | CCRF-CEM 72.8 µM | IGROV-1 > 100 µM | NCI-H23 > 100 µM | DMS-114 > 100 µM | EKVX > 100 µM | OVCAR-4 > 100 µM | SNB-75 57.1 µM | HOP-62 > 100 µM | SK-MEL-28 > 100 µM | SW-620 > 100 µM | M14 > 100 µM | OVCAR-5 > 100 µM

Cc1ccc([N+]2=NC(c3ccc([N+](=O)[O-])cc3)=NN(c3ccccc3)C2)cc1
inactive: COLO 205 > 100 µM | SF-268 > 100 µM | HT-29 57.9 µM | CCRF-CEM 24.3 µM | IGROV-1 94.4 µM | NCI-H23 38.4 µM | DMS-114 40.1 µM | EKVX 43.7 µM | OVCAR-4 17.6 µM | HOP-62 > 100 µM | SK-MEL-28 > 100 µM | SW-620 > 100 µM | OVCAR-5 > 100 µM

CN(C)CCOC1(CC2CCCCC2)CCC(C(C)(C)C)CC1 (stereo not drawn)
inactive: MDA-MB-435 4.74 µM | HOP-92 5.73 µM | T47D 3.34 µM | COLO 205 2.87 µM | SF-268 10.5 µM | Hs-578T 6.78 µM | HT-29 2.43 µM | CCRF-CEM 2 µM | IGROV-1 8.71 µM | NCI-H23 8.43 µM | EKVX 8.07 µM | OVCAR-4 6.61 µM | SNB-75 6.81 µM | HOP-62 4.04 µM | SK-MEL-28 4.68 µM | SW-620 4.12 µM | M14 2.14 µM | OVCAR-5 5.53 µM | PC-3 4.1 µM
